The source of these data is patent US5668150A, “Non-symmetrical bis-heteroarylmethoxyphenylalkyl carboxylates as inhibitors of leukotriene biosynthesis” (Abbott Laboratories, priority 1996, dated 1997).

Where a name gives a salt, the structure may show the parent alone. Read-outs that look alike come from different tables or passages of the source.

This assay has as its system 5-Lipoxygenase. Put plainly: Inhibition of leukotriene biosynthesis in vitro: calcium ionophore-induced LTB4 formation in human polymorphonuclear leukocytes (PMNL). Particulars: calcium ionophore 8.3 μM, 15 min preincubation, 37 °C; for % I, In Vitro Inhibitory Potencies Against 5-Lipoxygenase from Stimulated LTB4 Formation in Human Polymorphonuclear Leukocytes: @ 0.10 μM; for IC50: read-out: IC50, In Vitro Inhibitory Potencies Against 5-Lipoxygenase from Stimulated LTB4 Formation in Human Polymorphonuclear Leukocytes. The class given is cell-based. The protocol:
Inhibition of leukotriene biosynthesis was evaluated in vitro using an assay involving calcium ionophore-induced LTB4 expressed in human (PMNL). Human PMNL isolated from heparinized (20 USP units/mL) venous blood (25 mL) obtained from healthy volunteers was layered over an equal volume of Ficoll-Hypaque Mono-Poly Resolving Medium (ICN Flow, Costa Mesa, Calif.) and centrifuged at 400×g for 40 min at 20° C. The PMNL was collected, erythrocytes lysed and washed 2× and suspended at 1.0×10^7 cells/mL in Earle's balanced salt solution with 17 mM Earle's HEPES. Aliquots of the cell suspension were preincubated with test compounds dissolved in DMSO (final concentration <2%) for 15 min. and stimulated with calcium ionophore (final concentration 8.3 μM) for 10 min. at 37 ° C. Incubations were stopped with the addition of two volumes of ice-cold methanol followed by centrifuging the cell suspensions at 4° C. for 10 rain at 450×g. The mount of LTB4 in the methanol extract was analyzed by enzyme-linked immunoassay or by HPLC analysis.

Consider `CC(CCC(=O)O)(c1ccc(OCc2ccc3ccccc3c2)cc1)c1ccc(OCc2ccc3ccccc3n2)cc1` (centres unmarked) [Example 3, 4-(4-(2-naphthylmethoxy)phenyl)-4-(4-(2-quinolylmethoxy)phenyl)pentanoic acid], for which the “% I, In Vitro Inhibitory Potencies Against 5-Lipoxygenase from Stimulated LTB4 Formation in Human Polymorphonuclear Leukocytes” value is 93%.

For `Cn1c(COc2ccc(C(C)(CCC(=O)O)c3ccc(OCc4ccc5ccccc5n4)cc3)cc2)nc2ccccc21` (centres unmarked) [Example 6, 4-(4-(2-(1-methyl)benzimidazolylmethoxy)phenyl)-4-(4-(2-quinolylmethoxy)phenyl)pentanoic acid sodium salt], the IC50 (sodium salt) is 90 nM.

As for `CC(CCC(=O)O)(c1ccc(OCc2ccc3ccccc3n2)cc1)c1ccc(OCc2nc3ccccc3s2)cc1` (centres unmarked) [Example 2, 4-(4-(2-benzothiazolylmethoxy)phenyl)-4-(4-(2-quinolylmethoxy)phenyl)pentanoic acid sodium salt], the IC50 stood at 52 nM.

`Cn1c(COc2ccc(C(C)(CCC(=O)O)c3ccc(OCc4ccc5ccccc5n4)cc3)cc2)nc2ccccc21` (centres unmarked) [Example 5, 4-(4-(2-(1-methyl)benzimidazolylmethoxy)phenyl)-4-(4-(2-quinolylmethoxy)phenyl)pentanoic acid sodium salt]: for the setting “sodium salt”, the IC50 came to 80 nM.

For `CC(CCC(=O)O)(c1ccc(OCc2ccc3ccccc3n2)cc1)c1ccc(OCc2nc3ccccc3s2)cc1` (centres unmarked) [Example 1, 4-(4-(2-benzothiazolylmethoxy)phenyl)-4-(4-(2-quinolylmethoxy)phenyl)pentanoic acid], the “% I, In Vitro Inhibitory Potencies Against 5-Lipoxygenase from Stimulated LTB4 Formation in Human Polymorphonuclear Leukocytes” value is on record as 95%.

A word on the IC50: it is the concentration that inhibits the measured activity by half.
